9 compounds from patent publication US11897862B2 (Gilead Sciences, Inc., priority 2022, dated 2024) can be followed below.

pEC50: −log10 of the molar value. Where two headings read alike, the source gives them in different places.

Common to all, as to type: cell-based
In assay [1] the target is T1, IKZF1 (Homo sapiens, UniProt Q13422+Q96SW2).
T1 construct: expressed in transfected cells
The experiment in a line: HEK293 HiBiT in vitro degradation of IKZF1. As to conditions: for Dmax: HEK293, HEK293 HiBiT, maximum degradation at the highest concentration tested; for DC50: HEK293 HiBiT, 18-24 hr incubation, normalized to DMSO control, read-out: IKZF1 EC50. The method, boiled down:
(§1)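 EC50 and Dmax come from Nano-Glo lytic luminescence after 18-24 hr compound treatment at 37° C. Reporter cells were single-copy Flp-In T-REx HEK293 pools carrying HiBiT fused to the C-terminus of IKZF1, IKZF2 or SALL4. Expression was induced overnight beforehand with […] doxycycline.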

The target in assay [2] is T2, SALL4 (Homo sapiens, UniProt Q96SW2+Q9UJQ4).
T2 construct: expressed in transfected cells
T2 sequence (Q9UJQ4 whole entry): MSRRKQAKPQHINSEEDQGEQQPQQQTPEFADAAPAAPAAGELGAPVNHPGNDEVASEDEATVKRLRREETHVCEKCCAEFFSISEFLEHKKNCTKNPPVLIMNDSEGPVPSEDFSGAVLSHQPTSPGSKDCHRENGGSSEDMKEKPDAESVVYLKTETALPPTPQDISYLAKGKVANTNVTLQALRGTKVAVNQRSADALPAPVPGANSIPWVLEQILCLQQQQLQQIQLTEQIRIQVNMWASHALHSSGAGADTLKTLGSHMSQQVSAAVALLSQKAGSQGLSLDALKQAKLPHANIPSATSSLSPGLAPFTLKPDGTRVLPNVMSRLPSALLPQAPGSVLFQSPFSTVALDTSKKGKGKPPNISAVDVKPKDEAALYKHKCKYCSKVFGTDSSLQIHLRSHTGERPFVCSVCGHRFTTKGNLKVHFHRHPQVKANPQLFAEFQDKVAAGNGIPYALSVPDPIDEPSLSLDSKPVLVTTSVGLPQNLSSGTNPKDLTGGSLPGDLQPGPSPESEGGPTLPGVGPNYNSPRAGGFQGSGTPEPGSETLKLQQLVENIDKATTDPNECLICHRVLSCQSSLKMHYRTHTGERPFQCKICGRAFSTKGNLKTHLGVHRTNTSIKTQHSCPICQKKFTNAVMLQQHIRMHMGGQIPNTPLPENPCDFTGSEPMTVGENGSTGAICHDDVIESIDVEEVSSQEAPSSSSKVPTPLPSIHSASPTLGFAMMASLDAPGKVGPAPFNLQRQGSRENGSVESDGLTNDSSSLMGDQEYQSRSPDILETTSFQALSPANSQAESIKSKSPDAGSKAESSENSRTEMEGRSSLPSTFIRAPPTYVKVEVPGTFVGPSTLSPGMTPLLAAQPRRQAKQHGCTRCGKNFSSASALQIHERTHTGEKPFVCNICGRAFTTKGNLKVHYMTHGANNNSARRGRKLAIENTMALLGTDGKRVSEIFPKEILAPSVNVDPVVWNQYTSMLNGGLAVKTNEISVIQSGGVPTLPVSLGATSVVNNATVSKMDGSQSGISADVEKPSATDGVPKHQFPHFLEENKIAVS
T2 sequence (Q96SW2 whole entry): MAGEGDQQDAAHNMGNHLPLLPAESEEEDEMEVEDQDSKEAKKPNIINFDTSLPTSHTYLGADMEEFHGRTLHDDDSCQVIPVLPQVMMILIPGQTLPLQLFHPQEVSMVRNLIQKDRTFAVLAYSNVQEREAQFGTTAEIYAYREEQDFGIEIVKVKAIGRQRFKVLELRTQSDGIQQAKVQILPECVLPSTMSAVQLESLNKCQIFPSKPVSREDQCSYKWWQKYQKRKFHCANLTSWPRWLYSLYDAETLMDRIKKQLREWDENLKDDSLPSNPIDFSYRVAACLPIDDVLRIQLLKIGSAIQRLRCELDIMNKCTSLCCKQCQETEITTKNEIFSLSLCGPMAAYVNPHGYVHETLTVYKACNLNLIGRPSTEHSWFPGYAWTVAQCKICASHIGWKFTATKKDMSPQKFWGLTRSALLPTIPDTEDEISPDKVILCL
T2 sequence (Q16531 whole entry partner): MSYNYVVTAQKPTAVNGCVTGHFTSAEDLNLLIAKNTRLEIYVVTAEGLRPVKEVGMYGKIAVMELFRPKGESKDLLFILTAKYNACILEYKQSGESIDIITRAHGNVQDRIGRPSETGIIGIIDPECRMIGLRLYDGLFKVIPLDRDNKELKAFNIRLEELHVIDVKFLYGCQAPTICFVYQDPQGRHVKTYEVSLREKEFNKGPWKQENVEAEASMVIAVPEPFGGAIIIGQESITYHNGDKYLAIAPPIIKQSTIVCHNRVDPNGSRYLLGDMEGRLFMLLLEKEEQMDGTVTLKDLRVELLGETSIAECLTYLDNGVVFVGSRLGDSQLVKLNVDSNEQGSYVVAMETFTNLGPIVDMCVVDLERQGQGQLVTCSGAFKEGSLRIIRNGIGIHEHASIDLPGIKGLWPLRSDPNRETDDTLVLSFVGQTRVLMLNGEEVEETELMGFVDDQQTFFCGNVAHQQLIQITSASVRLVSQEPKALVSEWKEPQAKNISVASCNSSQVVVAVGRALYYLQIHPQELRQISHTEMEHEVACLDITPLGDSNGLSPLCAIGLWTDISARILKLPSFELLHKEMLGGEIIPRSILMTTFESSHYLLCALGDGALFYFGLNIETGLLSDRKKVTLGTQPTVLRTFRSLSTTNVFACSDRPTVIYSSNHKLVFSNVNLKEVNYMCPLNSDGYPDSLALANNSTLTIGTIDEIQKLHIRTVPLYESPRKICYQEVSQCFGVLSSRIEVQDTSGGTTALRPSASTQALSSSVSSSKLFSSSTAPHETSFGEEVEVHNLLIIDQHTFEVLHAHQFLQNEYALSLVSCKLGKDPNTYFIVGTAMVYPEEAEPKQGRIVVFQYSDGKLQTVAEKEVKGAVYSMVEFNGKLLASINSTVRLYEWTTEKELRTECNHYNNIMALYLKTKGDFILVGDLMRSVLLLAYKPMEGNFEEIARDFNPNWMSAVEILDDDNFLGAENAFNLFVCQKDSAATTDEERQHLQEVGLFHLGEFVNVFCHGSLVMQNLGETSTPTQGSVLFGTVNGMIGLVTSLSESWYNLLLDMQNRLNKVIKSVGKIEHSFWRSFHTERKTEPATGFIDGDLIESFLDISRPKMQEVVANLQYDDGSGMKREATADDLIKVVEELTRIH
The experiment in a line: HEK293 HiBiT in vitro degradation of SALL4. As to conditions: for DC50: 18-24 hr incubation, normalized to DMSO control, read-out: SALL4 EC50. The protocol: In vitro degradation of IKZF1, IKZF2, and SALL4 was measured using HiBiT protein tagging and detection technology (Promega).
HiBit technology was used to develop the quantitative assays to measure the cellular IKZFs level by tagging an 11 amino acid HiBit peptides […] to the protein of interest. Reporter plasmids were generated by fusing a linker sequence ([…]) followed by the HiBit tag at the C-terminus of IKZF1, IKZF2, and SALL4. The fusion fragments were subsequently cloned into pcDNA5 pcDNA™5/FRT/TO plasmids (Thermo Fisher, cat #V652020) downstream of the tetracycline operator. The resulting plasmids were co-transfected with pOG44 Flp-Recombinase Expression Vector (Thermo Fisher, cat #V600520) into Flp-In™ T-REx HEK293 line (Thermo Fisher, cat #R78077) and a stable cell pool was selected by adding 100 µg/ml of Hygromycin (Thermo Fisher, cat #10687010). The reporter cell enabled Tet-On inducible reporter expression from a single copy of the integrated gene.
On Day 1, Cells were grown to ˜80% confluency in tissue culture medium (DMEM Glutamax (Gibco10569), 10% Tet free FBS (Takara 631106), and PenStrep Glutamin (Gibco 10378)) in tissue culture flasks. Doxycycline was then added to a final concentration of […] to induce reporter expression at 37° C. overnight.
On Day 2, 125 nL of serially-diluted solution of testing compounds were dispensed into 384-well white solid assay plates via ECHO acoustic liquid handler. Cells were lifted by 0.25% Trypsin (Gibco 25200) then pelleted by centrifugation (Beckman Avanti J-E) at 500×g for 5 min. Cell pellets were resuspended in TC medium at the concentration of 3e5/mL and 25 μL of cell suspension were added into each well of compound-spotted plates. The plates were returned to a 37° C. incubator overnight (18-24 hr).
On Day 3, assay plates were removed from the tissue culture incubator and 25 μL of Nano-Glo lytic detection system (Promega, cat #N3030) was added to each well. Plates were incubated at r.t. for 3 min with shaking, and luminescence was read using an Envision reader (Perkin Elmer).
To assess the IKZF1, IKZF2, and SALL4 degrader potential of exemplified compounds of this disclosure and certain Reference Compounds EC50 and Dmax values were determined for the compounds of Examples 1 to 383 and Reference Compounds A-1, B-1, B-2, B-3, B-4, and C-1 in the HiBiT assays. Asterisks (*) indicate examples for which the data shown represents an average of n≥3.

Assay [3] has as its system IL-2 production in Jurkat cells. The experiment in a line: Jurkat IL-2 functional assay (ELISA of supernatants). The following applies: Homo sapiens; for maximal fold induction: Jurkat, top of the curve fit; for pEC50: overnight incubation. The protocol: (§2) Jurkat cell line (ATCC, Clone E6-1), highly expresses IKZF2 and lends it an appropriate system to screen degradation along with a functional readout. Jurkat cells were grown to 80% confluency in TC medium (RPMI containing glutamax, 10% FBS, 1% NEAA, and 1% Pen/Strep Glutamin in tissue culture flasks.
(§3) The cells were spun down at 400 g for 5 mins and counted. 100 K cells per well were added to a 96-well plate. The compounds were introduced starting at 10 μM and dilutions were made 1:10 for each compound. 100 μL of compound was added to each well for a 12-point titration. The cells were incubated at 37° C. with 5% CO2 overnight.
The following day, supernatants were collected for a functional readout using ELISA. The supernatants were diluted 1:2 and added to appropriate Human IL-2 plates for IL-2 functional readout.
The top of the curve fit for each compound is reported as the IL-2 ‘fold increase over DMSO control.’

Assay [4] addresses T3, IKZF2 (Homo sapiens, UniProt Q96SW2+Q9UKS7). The experiment in a line: Human whole blood IKZF2 degradation (flow cytometry, CD4/CD25/Foxp3+ Treg cells). More on the design: endogenous in cells. The following applies: 24 hrs incubation, IKZF2 MFI in CD4/CD25/Foxp3+ Treg cells, flow cytometry; for DC50: read-out: IKZF2 EC50. Summed up: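 Fresh healthy-donor human whole blood stimulated with CD3/CD28 activator and serially diluted compound for 24 hrs at 37° C. IKZF2 MFI in CD4/CD25/Foxp3+ Tregs (IKZF1 MFI in CD4+ T cells) measured by flow cytometry after RBC lysis, fixation, permeabilization. EC50 and Dmax versus DMSO wells.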
Target sequence in this assay (Q9UKS7 whole entry): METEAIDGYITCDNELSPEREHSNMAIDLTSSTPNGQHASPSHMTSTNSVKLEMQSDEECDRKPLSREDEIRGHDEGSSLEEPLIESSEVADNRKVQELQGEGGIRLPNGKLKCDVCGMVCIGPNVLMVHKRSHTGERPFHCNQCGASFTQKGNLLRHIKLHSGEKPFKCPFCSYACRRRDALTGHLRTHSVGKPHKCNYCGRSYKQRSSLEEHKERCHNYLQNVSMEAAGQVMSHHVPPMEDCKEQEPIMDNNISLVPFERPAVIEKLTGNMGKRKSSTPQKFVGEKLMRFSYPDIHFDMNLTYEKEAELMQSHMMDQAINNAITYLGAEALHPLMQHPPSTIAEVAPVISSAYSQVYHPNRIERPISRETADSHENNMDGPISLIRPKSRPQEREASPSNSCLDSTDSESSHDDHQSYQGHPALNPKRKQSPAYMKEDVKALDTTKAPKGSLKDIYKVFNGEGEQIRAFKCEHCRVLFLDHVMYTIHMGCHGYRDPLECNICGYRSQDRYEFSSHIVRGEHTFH
Target sequence in this assay (Q96SW2 whole entry): as the sequence (Q96SW2 whole entry) above
Target sequence in this assay (Q16531 whole entry partner): as the sequence (Q16531 whole entry partner) above

For assay [5], the target named is T3, IKZF2. The experiment in a line: Jurkat IKZF2 degradation (flow cytometry). More on the design: endogenous in cells. As to conditions: Jurkat cells, overnight incubation; for DC50: flow cytometry, normalized to DMSO control, read-out: IKZF2 Degradation EC50; for Dmax: maximum degradation at the highest concentration tested. As to the method:
as §2, §3
Cells were stained with appropriate surface and intracellular antibodies and acquired by flow cytometry and analysed for degradation. […]
Target sequence in this assay (Q9UKS7 whole entry): as the sequence (Q9UKS7 whole entry) above
Target sequence in this assay (Q96SW2 whole entry): as the sequence (Q96SW2 whole entry) above
Target sequence in this assay (Q16531 whole entry partner): as the sequence (Q16531 whole entry partner) above

Assay [6] concerns the target T3, IKZF2. The assay can be described thus: HEK293 HiBiT in vitro degradation of IKZF2. The following applies: for DC50 / IKZF2 Dmax: HEK293 HiBiT; for DC50: 18-24 hr incubation, normalized to DMSO control, read-out: IKZF2 EC50; for IKZF2 Dmax / Dmax: maximum degradation at the highest concentration tested; for Dmax: HEK293, HEK293 HiBiT. On the set-up: expressed in transfected cells. The method, boiled down:
as §1
Target sequence in this assay (Q9UKS7 1-500 isoform Q9UKS7-2): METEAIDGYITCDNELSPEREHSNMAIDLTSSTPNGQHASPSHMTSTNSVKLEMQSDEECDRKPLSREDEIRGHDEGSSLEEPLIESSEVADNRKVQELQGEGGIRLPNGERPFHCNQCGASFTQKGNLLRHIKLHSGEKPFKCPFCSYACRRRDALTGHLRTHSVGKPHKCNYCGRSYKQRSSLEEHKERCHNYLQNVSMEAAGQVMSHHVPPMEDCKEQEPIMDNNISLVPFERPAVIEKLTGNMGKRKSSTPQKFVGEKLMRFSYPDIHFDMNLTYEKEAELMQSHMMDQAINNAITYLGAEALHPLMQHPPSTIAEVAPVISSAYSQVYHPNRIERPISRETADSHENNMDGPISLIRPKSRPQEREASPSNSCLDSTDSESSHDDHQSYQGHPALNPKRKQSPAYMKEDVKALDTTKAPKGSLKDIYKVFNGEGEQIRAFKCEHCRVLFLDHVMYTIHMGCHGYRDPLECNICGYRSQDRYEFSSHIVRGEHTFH
Target sequence in this assay (Q96SW2 whole entry): as the sequence (Q96SW2 whole entry) above
Target sequence in this assay (Q16531 whole entry partner): as the sequence (Q16531 whole entry partner) above

The target of assay [7] is T3, IKZF2. The assay can be described thus: HEK293 IKZF2 degradation kinetics (HiBiT, timepoints 1-24 h). On the set-up: expressed in transfected cells. The following applies: HEK293, IKZF2; timepoints 1, 2, 3, 4.5 and 24 hour; read-out: Maximum degradation rate Kinact (converted). The protocol: The assay technology and principles for evaluating IKZF2 degradation kinetics in HEK293 cells was identical to the HEK293 degradation assay as described above. Additional details are briefly described below.
On Day 1, Cells were grown and induced the same as described above. On Days 2 and 3, compounds for testing were dispensed via ECHO and cells were lifted and plated into compound-spotted assay plates as above. Plates were returned to the 37° C. incubator until addition of Nano-Glo lytic reagent at 1, 2, 3, 4.5, and 24 hour timepoints. At these timepoints, plates were read on Envision reader as above.
All raw data was normalized to DMSO control (final concentration: 0.5%) wells as POC and plotted out as a function of time to generate the degradation rate constant (K) value. The maximum degradation rate (Kinact) was determined by plotting the K value as a function of concentration for each compound tested. Kinact values are shown in Table 25 and the degradation rate plots as well as timecourse of degradation are shown for select compounds in FIG. 1A, FIG. 1B, FIG. 2A and FIG. 2B.
Target sequence in this assay (Q9UKS7 1-500 isoform Q9UKS7-2): as the sequence (Q9UKS7 1-500 isoform Q9UKS7-2) above
Target sequence in this assay (Q96SW2 whole entry): as the sequence (Q96SW2 whole entry) above
Target sequence in this assay (Q16531 whole entry partner): as the sequence (Q16531 whole entry partner) above

Setting [8] is: ELISA of supernatants, read-out: IL-2 Production Fold increase over DMSO control.
The mark [9] stands for this setting: read-out: increase in IL-2 production relative to DMSO control.

T1 sequence (Q13422 whole entry): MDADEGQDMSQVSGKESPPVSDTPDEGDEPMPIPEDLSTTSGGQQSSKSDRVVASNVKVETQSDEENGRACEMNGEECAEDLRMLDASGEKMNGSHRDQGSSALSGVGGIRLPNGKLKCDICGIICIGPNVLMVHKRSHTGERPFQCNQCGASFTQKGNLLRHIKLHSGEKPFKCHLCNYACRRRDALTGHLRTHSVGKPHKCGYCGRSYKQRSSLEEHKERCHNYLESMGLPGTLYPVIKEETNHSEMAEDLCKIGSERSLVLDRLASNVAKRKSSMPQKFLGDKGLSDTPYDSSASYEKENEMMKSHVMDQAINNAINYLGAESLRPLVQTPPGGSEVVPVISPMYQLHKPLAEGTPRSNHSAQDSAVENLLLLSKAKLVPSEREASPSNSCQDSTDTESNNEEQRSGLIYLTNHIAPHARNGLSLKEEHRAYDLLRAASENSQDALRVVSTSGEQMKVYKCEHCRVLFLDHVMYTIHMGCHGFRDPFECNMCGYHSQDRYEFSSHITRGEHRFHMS
T1 sequence (Q96SW2 whole entry): as the sequence (Q96SW2 whole entry) above
T1 sequence (Q16531 whole entry partner): as the sequence (Q16531 whole entry partner) above

As to `O=C1CCC(N2Cc3c(ccc(C[C@H]4OCCC[C@@H]4NC4CCC(C(F)F)CC4)c3F)C2=O)C(=O)N1` (single isomer, unassigned) [Example 283], the results for the greatest degradation seen (Dmax) in assay [1], in assay [4] and in assay [5] were 26%, 96% and 90%, respectively. Also, the DC50 was 92 nM in assay [1]; greater than 10000 nM in assay [2]; 5 nM in assay [4]; 1.4 nM in assay [5]; 4 nM in assay [6]. For the same compound, the figures for the maximal fold induction in assay [3] (setting [8]) and in assay [3] (setting [9]) were 2.1 and no less than 1.9, respectively. For the same compound, the pEC50 in assay [3] (ELISA of supernatants) was 8.72. Further, the “IKZF2 Dmax” value in assay [6] turned out to be 98%. In addition, the kinact in assay [7] was 9.44e-05 s⁻¹.

As for `CCN[C@H]1CCCC[C@@H]1Cc1ccc2c(c1)CN(C1CCC(=O)NC1=O)C2=O` (stereo partly drawn) [Example 35, 3-(5-(((1R,2S)-2-(ethylamino)cyclohexyl)methyl)-1-oxoisoindolin-2-yl)piperidine-2,6-dione], the Dmax is 31% in assay [1], 83% in assay [5] and 94% in assay [6]. Moreover, the figures for the DC50 in assay [1], in assay [5] and in assay [6] were 261 nM, 3.9 nM and 29 nM, respectively. Besides, the figures for the maximal fold induction in assay [3] (setting [8]) and in assay [3] (setting [9]) were 1.9 and no less than 1.9, respectively. In addition, the pEC50 in assay [3] (ELISA of supernatants) was 6.85.

With `O=C1CCC(N2Cc3c(ccc(C[C@H]4CCCC[C@@H]4NC4CCC(F)(F)CC4)c3F)C2=O)C(=O)N1` (stereo partly drawn) [Example 84, 3-(5-(((1R,2S)-2-((4,4-difluorocyclohexyl)amino)cyclohexyl)methyl)-4-fluoro-1-oxoisoindolin-2-yl)piperidine-2,6-dione], the Dmax stood at 68% in assay [1], 93% in assay [4], 97% in assay [5] and 97% in assay [6]. The DC50 in assay [1] was 28 nM; in assay [4], 1 nM; in assay [5], 0.05 nM; in assay [6], 1 nM. For the same compound, the maximal fold induction in assay [3] (setting [8]) is 2.6; in assay [3] (setting [9]), no less than 1.9. This compound showed a pEC50 in assay [3] (ELISA of supernatants) of 9.70.

With `O=C1CCC(N2Cc3c(ccc(C[C@H]4OCCC[C@@H]4NC4CCC(F)(F)CC4)c3F)C2=O)C(=O)N1` (stereo partly drawn) [Example 94, 3-(5-(((2R,3S)-3-((4,4-difluorocyclohexyl)amino)tetrahydro-2H-pyran-2-yl)methyl)-4-fluoro-1-oxoisoindolin-2-yl)piperidine-2,6-dione], the DC50 in assay [1] was greater than 10000 nM; in assay [4], 7 nM; in assay [5] it was 2 nM; in assay [6] it was 10 nM. Moreover, the maximal fold induction was 2.1 in assay [3] (setting [8]) and no less than 1.9 in assay [3] (setting [9]). This compound had a pEC50 in assay [3] (ELISA of supernatants) of 8.64. For the same compound, the Dmax in assay [4] stood at 90%; in assay [5], 88%; in assay [6] it was 96%.

Turning to `CC(N[C@H]1CCCC[C@@H]1Cc1ccc2c(c1)CN(C1CCC(=O)NC1=O)C2=O)C1CCC1` (stereo partly shown) [Example 218], the greatest degradation seen (Dmax) in assay [1] is 34%; in assay [5], 93%. The DC50 in assay [1] came out at 626 nM; in assay [4], 4 nM; in assay [5] it was 0.8 nM; in assay [6] it was 2 nM. Also, the maximal fold induction is 2.2 in assay [3] (setting [8]) and no less than 1.9 in assay [3] (setting [9]). In assay [3] (ELISA of supernatants), the negative-log EC50 (pEC50) was 8.10. Also, the figures for the “IKZF2 Dmax” value in assay [4] and in assay [6] were 97% and 95%, respectively. In addition, the kinact in assay [7] was 0.000131 s⁻¹.

Consider `O=C1CC[C@H](N2Cc3c(ccc(C[C@H]4OCCC[C@@H]4N[C@H]4CC[C@H](F)CC4)c3F)C2=O)C(=O)N1` [Example 369], for which the DC50 in assay [1] was greater than 1000 nM; in assay [2], greater than 10000 nM; in assay [5] it was 0.1 nM; in assay [6], 5 nM. Also, the maximal fold induction in assay [3] (setting [8]) was 2; in assay [3] (setting [9]), no less than 1.9. The pEC50 in assay [3] (ELISA of supernatants) was 10.52. Moreover, the results for the Dmax in assay [5] and in assay [6] were 90% and 97%, respectively. Moreover, the kinact in assay [7] is 0.000106 s⁻¹.

Take `O=C1CCC(N2Cc3cc(C4CCC(Cc5ccccc5)CC4)ccc3C2=O)C(=O)N1` (stereo not shown) [Example A-1]: the Dmax in assay [2] (maximum degradation at the highest concentration tested) is 63%; in assay [4], 82%; in assay [5], 61%; in assay [6] it was 82%. Moreover, the maximal fold induction in assay [3] (setting [8]) was 1.6. Besides, the negative-log EC50 (pEC50) in assay [3] (ELISA of supernatants) was 8.00. Further, in assay [7], the kinact was 3.89e-05 s⁻¹.

Take `CCN[C@H]1CCCC[C@@H]1Oc1ccc2c(c1)CN(C1CCC(=O)NC1=O)C2=O` (stereo partly shown) [Example B-2]: the maximal fold induction in assay [3] (setting [8]) was determined as 1.8. The compound also showed a pEC50 in assay [3] (ELISA of supernatants) of 7.74. For the same compound, the results for the Dmax in assay [5] and in assay [6] were 83% and 93%, respectively.

As to `O=C1CCC(N2Cc3cc(O[C@H]4CCCC[C@@H]4NC4CCC(F)(F)CC4)ccc3C2=O)C(=O)N1` (stereo partly shown) [Example B-4], the maximal fold induction in assay [3] (setting [8]) amounted to 1.8. In assay [3] (ELISA of supernatants), this compound showed a pEC50 of 8.11. For the same compound, the Dmax in assay [4] was 97%; in assay [5], 94%; in assay [6], 98%. Besides, in assay [7], the kinact is 0.000144 s⁻¹.
